Data from article PMC8300687, “A Fine-Tuned Lipophilicity/Hydrophilicity Ratio Governs Antibacterial Potency and Selectivity of Bifurcated Halogen Bond-Forming NBTIs” (Antibiotics, 2021).
Values after ≈ are worked out from the molar mass of the structure shown. Where two headings read alike, the source gives them in different places.

What was measured:
MRSA (QA-11.2) = test: MIC broth microdilution, MRSA QA-11.2; format: cell-based, methicillin-resistant S. aureus; conditions: Staphylococcus aureus, 20 h, resistant to cefoxitin, chloramphenicol, clindamycin, linezolid, tetracycline, thiamulin, trimethoprim, read-out: MIC MRSA (QA-11.2)
Procedure: (§1) Antimicrobial testing was carried out by the broth microdilution method in 96-well plate format following the Clinical and Laboratory Standards Institute (CLSI) guidelines and European Committee on Antimicrobial Susceptibility Testing (EUCAST) recommendations. Bacterial suspension of specific bacterial strain equivalent to 0.5 McFarland turbidity standard was diluted with cation-adjusted Mueller Hinton broth with TES (Thermo Fisher Diagnostic, Landsmeer, The Netherlands), to obtain a final inoculum of 10^5 CFU/mL. Compounds dissolved in DMSO and inoculum were mixed together and incubated for 18–20 h at 35 °C. Suspensions of Mycobacterium sp. were prepared into a tube of Middelbrook 7H9 broth supplemented with 5% OADC (Thermo Scientific, Trek Diagnostic Systems, West Sussex, UK) and incubated for at least 10 days. After incubation the minimal inhibitory concentration (MIC) values were determined by visual inspection as the lowest dilution of compounds showing no turbidity. Tetracycline was used as a positive control on every assay plate.

HUVEC = test: Metabolic activity assessment (cytotoxicity), HUVEC; format: cell-based; conditions: Homo sapiens, metabolic activity after 72 h treatment
Procedure: Cells of the HepG2 line (ATCC® HB-8065™) and HUVEC (ATCC® CRL-1730™) were cultured in Dulbecco’s Modified Eagle Medium (DMEM; Sigma-Aldrich, St. Louis, MO, USA) supplemented with 10% heat-deactivated FBS (Gibco, Grand Island, NE, USA), 2 mM L-glutamine, 100 U/mL penicillin, 100 μg/mL streptomycin (all from Sigma-Aldrich, St. Louis, MO, USA) in a humidified chamber at 37 °C and 5% CO2. The experiments were carried out on passages 7–9 for both cell lines. The tested compounds were dissolved in DMSO and further diluted in culture medium to a desired final concentration. Cells were seeded into 96-well plates at 8 × 10^4 cells/mL (100 μL/well) and incubated for 24 h to attach onto the wells. Cells were treated with 1 μM and 50 μM of each compound of interest or corresponding vehicle as control. […] The metabolic activity was assessed after 72 h treatment using the CellTiter 96 Aqueous One Solution Cell Proliferation Assay (Promega, Madison, WI, USA), in accordance with the manufacturer’s instructions. The absorbance was measured at 492 nm on an automated microplate reader BioTek Synergy HT (BioTek Instruments, Inc., Winooski, VT, USA). Data are presented as the percentage of metabolic activity of control cells stimulated with vehicle or as IC50 value (mean ± SD) from two independent experiments, each conducted in duplicate or triplicate. IC50 values were calculated by a non-linear regression model using Graph Pad Prism 7 software.

E. coli Topo IV = target: T1, E. coli Topo IV (Escherichia coli, UniProt P0AFI2); test: Topo IV Relaxation High Throughput Plate assay, E. coli; format: biochemical; conditions: for LE Topo IV E. coli: LE = (1.37/HA) × pIC50
T1 construct: purchased Inspiralis (Norwich, UK)
T1 sequence (P0AFI2 whole entry): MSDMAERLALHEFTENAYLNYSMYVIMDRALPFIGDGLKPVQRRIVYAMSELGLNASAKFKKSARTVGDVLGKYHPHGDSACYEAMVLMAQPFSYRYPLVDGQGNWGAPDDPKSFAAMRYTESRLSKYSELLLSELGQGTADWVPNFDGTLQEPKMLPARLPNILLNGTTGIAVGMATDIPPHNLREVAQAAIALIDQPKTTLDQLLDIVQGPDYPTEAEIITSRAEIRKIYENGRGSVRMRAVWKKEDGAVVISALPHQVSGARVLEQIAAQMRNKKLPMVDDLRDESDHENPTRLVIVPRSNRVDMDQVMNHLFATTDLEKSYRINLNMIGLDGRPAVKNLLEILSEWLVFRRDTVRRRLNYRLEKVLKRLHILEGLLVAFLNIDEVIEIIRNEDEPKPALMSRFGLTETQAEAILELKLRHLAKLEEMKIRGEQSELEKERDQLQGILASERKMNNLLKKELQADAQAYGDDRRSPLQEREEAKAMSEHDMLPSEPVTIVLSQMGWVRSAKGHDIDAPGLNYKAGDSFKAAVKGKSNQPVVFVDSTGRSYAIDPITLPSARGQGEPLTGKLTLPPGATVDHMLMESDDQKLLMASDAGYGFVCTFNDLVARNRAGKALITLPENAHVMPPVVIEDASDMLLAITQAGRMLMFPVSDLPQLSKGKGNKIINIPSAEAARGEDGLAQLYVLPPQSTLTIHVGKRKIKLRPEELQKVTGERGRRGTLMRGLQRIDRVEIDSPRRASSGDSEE
T1 sequence (P20083 whole entry, further chain): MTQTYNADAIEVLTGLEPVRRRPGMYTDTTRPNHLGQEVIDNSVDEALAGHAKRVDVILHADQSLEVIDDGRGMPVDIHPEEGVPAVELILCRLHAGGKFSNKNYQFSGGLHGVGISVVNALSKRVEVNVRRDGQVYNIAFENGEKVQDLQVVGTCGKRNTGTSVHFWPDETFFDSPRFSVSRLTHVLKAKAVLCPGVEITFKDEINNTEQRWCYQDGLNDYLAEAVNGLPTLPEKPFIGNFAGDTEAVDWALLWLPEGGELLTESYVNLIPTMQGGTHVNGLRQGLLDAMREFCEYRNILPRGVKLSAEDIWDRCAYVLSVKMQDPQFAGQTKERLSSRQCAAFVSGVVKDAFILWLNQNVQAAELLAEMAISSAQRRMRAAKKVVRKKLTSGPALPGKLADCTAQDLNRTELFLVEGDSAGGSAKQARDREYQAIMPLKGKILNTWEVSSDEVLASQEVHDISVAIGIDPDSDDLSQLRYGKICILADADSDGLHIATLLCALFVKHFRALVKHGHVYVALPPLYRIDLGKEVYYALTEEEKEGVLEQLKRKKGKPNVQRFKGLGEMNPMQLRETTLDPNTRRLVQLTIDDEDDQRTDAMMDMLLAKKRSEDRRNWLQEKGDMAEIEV
Procedure: (§2) A Topo IV Relaxation High Throughput Plate assay kit, purchased from Inspiralis (Norwich. UK) was used to determine IC50 values of compounds on S. aureus and E. coli. […] Biotinylated oligonucleotide in wash buffer was immobilized onto the wells, and the excess oligonucleotide was washed off with wash buffer and ultrapure water. 1.5 U of S. aureus or E. coli […] enzyme was incubated together with 0.75 μg of supercoiled pNO1 plasmid as a substrate in the presence of 3 μL inhibitor solution in 10% DMSO and 0.008% Tween 20 at 37 °C for 30 min in a final reaction volume of 30 μL in dilution buffer (50 mM Tris-HCl (pH 7.5), 1 mM DTT, 1 mM EDTA, 40% (w/v) glycerol for S. aureus and 40 mM HEPES, KOH (pH 7.6), 100 mM potassium glutamate, 1 mM DTT, 1 mM EDTA, and 40% (v/v) glycerol for E. coli). The reactions were stopped by adding the TF buffer (50 mM NaOAc (pH 4.7), 50 mM NaCl, and 50 mM MgCl2) to allow the triplex formation (biotin-oligonucleotide-plasmid) for additional 30 min. Afterward, the unbound plasmid was washed off using TF buffer, and the solution of Promega Diamond dye in T10 buffer (10 mM Tris-HCl (pH 8.0), 1 mM EDTA) was added. […] IC50 value represents the mean of two to four independent measurements.

E. coli (QA-11.8) = test: MIC broth microdilution, E. coli QA-11.8; format: cell-based; conditions: Escherichia coli, 20 h; read-out: MIC E. coli (QA-11.8)
Procedure: as §1

Human topoisomerase IIα = target: T2, Human topoisomerase IIα (Homo sapiens, UniProt P11388); test: Human topoisomerase II Alpha Relaxation High Throughput Plate assay; format: biochemical; conditions: 0.5 h; residual activity of the enzyme at compound concentration 10 μM, mean ± SD; read-out: Human Topo II (% RA)
T2 construct: purchased Inspiralis (Norwich, UK)
T2 sequence (P11388 whole entry): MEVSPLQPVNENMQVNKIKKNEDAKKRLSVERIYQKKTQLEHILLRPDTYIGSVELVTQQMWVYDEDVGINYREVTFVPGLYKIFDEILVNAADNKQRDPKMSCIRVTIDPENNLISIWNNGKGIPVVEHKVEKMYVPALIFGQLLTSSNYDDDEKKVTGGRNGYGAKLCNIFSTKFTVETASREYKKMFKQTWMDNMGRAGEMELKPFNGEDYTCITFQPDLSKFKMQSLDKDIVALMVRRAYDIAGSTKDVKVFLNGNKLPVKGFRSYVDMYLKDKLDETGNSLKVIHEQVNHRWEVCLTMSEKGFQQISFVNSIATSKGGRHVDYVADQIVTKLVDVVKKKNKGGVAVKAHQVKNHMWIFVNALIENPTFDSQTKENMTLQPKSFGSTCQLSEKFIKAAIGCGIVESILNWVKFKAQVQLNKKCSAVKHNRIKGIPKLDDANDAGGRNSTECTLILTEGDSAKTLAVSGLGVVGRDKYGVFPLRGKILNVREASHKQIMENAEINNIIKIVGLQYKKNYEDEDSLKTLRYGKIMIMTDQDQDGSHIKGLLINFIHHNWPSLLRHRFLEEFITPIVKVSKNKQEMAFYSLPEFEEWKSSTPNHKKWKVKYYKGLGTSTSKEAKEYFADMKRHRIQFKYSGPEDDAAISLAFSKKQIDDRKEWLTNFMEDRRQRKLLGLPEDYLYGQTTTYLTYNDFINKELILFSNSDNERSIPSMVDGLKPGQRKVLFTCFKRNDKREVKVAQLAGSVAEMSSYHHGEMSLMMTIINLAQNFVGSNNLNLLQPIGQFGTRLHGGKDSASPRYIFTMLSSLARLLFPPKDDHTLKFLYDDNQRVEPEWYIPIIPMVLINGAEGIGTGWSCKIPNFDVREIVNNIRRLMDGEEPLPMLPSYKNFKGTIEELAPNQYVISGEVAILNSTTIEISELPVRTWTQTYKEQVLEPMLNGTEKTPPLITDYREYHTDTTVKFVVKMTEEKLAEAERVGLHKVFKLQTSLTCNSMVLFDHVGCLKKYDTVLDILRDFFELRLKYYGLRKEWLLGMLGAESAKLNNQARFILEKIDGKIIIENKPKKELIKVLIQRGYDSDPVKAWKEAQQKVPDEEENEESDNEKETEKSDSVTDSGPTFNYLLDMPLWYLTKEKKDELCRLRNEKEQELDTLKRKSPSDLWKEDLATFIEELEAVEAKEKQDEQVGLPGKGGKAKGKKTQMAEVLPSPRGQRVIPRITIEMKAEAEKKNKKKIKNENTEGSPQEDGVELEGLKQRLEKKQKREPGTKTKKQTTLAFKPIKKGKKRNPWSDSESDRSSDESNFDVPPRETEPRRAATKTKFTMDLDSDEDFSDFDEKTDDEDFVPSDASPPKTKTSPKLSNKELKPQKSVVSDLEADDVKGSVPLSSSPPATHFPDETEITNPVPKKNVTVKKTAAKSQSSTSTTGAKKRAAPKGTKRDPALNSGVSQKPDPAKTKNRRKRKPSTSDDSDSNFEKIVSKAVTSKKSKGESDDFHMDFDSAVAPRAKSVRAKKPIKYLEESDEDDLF
Procedure: A Human topoisomerase II Alpha Relaxation High Throughput Plate assay kit, purchased from Inspiralis (Norwich, UK) was used to evaluate the selectivity of compounds for the bacterial enzymes over the homologous human topoisomerase II. […] Biotinylated oligonucleotide in wash buffer was immobilized onto the wells and the excess oligonucleotide was washed off with wash buffer. […] The reactions were stopped by adding the TF buffer (50 mM NaOAc (pH 4.7), 50 mM NaCl, and 50 mM MgCl2) to allow the triplex formation (biotin-oligonucleotide-plasmid) for additional 30 min. Afterward, the unbound plasmid was washed off using TF buffer, and the solution of Promega Diamond dye in T10 buffer (10 mM Tris-HCl (pH 8.0), 1 mM EDTA) was added. […] Screening was performed at inhibitor concentrations of 10 μM. Raw data were converted to mean ± SD percentage of residual activity of the enzyme obtained by two independent measurements.

E. coli (ATCC 25922) = test: MIC broth microdilution, E. coli ATCC 25922; format: cell-based; conditions: Escherichia coli, ATCC25922
Outline: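 MIC taken by eye as the lowest compound dilution with no turbidity. Inoculum 10^5 CFU/mL (final) in cation-adjusted MH broth with TES; 18–20 h, 35 °C. Mycobacteria were grown in Middelbrook 7H9 with 5% OADC for at least 10 days. Tetracycline control on each plate.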

S. aureus (ATCC 29213) = test: MIC broth microdilution, S. aureus ATCC 29213; format: cell-based; conditions: Staphylococcus aureus, ATCC29213
Procedure: as §1

MRSA (QA-11.4) = test: MIC broth microdilution, MRSA QA-11.4; format: cell-based, methicillin-resistant S. aureus; conditions: Staphylococcus aureus, 20 h, resistant to cefoxitin, read-out: MIC MRSA (QA-11.4)
Procedure: as §1

E. coli (QA-11.7) = test: MIC broth microdilution, E. coli QA-11.7; format: cell-based; conditions: Escherichia coli, 20 h; multi-resistant isolate (ampicillin, azithromycin, cefotaxime, ertapenem, imipenem and others); read-out: MIC E. coli (QA-11.7)
Procedure: as §1

S. aureus Topo IV = target: T3, S. aureus Topo IV (Staphylococcus aureus, UniProt Q2FYS4); test: biochemical; conditions: for LE Topo IV S. aureus: LE = (1.37/HA) × pIC50; for IC50: mean of two to four measurements, read-out: Topoisomerase IV IC50 S. aureus
T3 construct: purchased Inspiralis (Norwich, UK)
T3 sequence (Q2FYS5 whole entry): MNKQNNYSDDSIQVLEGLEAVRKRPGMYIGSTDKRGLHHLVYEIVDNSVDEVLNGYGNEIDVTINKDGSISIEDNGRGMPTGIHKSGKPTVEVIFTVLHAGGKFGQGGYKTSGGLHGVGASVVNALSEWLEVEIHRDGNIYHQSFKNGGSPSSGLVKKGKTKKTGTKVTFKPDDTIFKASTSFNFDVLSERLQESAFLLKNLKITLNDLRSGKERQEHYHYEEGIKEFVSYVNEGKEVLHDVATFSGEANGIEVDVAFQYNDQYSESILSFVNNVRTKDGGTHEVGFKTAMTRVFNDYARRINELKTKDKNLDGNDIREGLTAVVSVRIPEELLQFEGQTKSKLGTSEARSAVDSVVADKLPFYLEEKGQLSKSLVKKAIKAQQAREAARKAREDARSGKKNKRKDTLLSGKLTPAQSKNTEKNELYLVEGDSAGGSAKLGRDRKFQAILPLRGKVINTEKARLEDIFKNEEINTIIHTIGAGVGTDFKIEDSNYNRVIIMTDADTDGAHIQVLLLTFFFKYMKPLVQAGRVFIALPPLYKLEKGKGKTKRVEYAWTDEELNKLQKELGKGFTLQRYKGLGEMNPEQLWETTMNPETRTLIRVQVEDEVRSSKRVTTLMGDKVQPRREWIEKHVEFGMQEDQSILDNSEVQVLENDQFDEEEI
T3 sequence (Q2FYS4 whole entry): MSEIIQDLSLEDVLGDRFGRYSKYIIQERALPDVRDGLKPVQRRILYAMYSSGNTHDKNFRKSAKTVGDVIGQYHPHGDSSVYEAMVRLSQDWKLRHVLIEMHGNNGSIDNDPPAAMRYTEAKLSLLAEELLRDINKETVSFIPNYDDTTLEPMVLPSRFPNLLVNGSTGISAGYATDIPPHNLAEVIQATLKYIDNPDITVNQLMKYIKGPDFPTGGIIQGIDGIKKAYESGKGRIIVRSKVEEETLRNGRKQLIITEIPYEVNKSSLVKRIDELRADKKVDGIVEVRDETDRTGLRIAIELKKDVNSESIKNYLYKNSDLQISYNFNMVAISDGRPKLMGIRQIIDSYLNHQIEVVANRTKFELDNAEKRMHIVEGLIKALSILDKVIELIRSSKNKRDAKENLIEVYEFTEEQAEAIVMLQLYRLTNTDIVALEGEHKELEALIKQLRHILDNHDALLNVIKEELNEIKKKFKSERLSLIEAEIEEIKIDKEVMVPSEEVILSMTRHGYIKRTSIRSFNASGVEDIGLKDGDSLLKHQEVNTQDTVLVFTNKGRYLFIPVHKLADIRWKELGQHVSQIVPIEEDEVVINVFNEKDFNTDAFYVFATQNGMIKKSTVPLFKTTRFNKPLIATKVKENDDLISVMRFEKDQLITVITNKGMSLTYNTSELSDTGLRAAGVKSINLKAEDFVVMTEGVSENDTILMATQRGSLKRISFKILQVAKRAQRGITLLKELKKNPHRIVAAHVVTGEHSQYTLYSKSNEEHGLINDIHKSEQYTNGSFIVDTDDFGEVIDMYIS
Procedure: as §2

[1] = E. coli ATCC 25922, read-out: E. coli MIC (converted)
[2] = read-out: MIC E. coli (ATCC 25922)
[3] = S. aureus ATCC 29213, read-out: S. aureus MIC (converted)
[4] = read-out: MIC S. aureus (ATCC 29213)

Compound	MIC (MRSA (QA-11.2)) [µg/mL]	IC50 (HUVEC) [µM]	IC50 (E. coli Topo IV) [µM]	LE Topo IV E. coli (E. coli Topo IV)	MIC (E. coli (QA-11.8)) [µg/mL]	remaining activity at 10 µM (Human topoisomerase IIα) [%]	MIC (E. coli (ATCC 25922); [1]) [µM]	MIC (E. coli (ATCC 25922); [2]) [µg/mL]	MIC (S. aureus (ATCC 29213); [3]) [µM]	MIC (S. aureus (ATCC 29213); [4]) [µg/mL]	MIC (MRSA (QA-11.4)) [µg/mL]	MIC (E. coli (QA-11.7)) [µg/mL]	LE Topo IV S. aureus (S. aureus Topo IV)	IC50 (S. aureus Topo IV) [µM]	IC50 (HUVEC; 72 h) [µM]
COc1ccc2nccc(CCN3CCC(NCc4cnn(C(C)C)c4)CC3)c2n1 [Compound 9, N-((1-Isopropyl-1H-pyrazol-4-yl)methyl)-1-(2-(6-methoxy-1,5-naphthyridin-4-yl)ethyl)piperidin-4-amine]	1 (≈ 2.45 µM)	> 50	0.23	0.30	8 (≈ 19.6 µM)	101 ± 6.82	19.6	8	0.31	0.125	1 (≈ 2.45 µM)	2 (≈ 4.9 µM)	0.20	40.38 ± 0.09	–
C=CCn1cc(CNC2CCN(CCc3ccnc4ccc(OC)nc34)CC2)cn1 [Compound 10, N-((1-Allyl-1H-pyrazol-4-yl)methyl)-1-(2-(6-methoxy-1,5-naphthyridin-4-yl)ethyl)piperidin-4-amine]	4 (≈ 9.84 µM)	> 50	0.28 ± 0.01	0.30	16 (≈ 39.4 µM)	95.7 ± 6.42	39.4	16	4.92	2	4 (≈ 9.84 µM)	4 (≈ 9.84 µM)	–	> 100	–
COc1ccc2nccc(CCN3CCC(NCc4ccc(CO)cc4)CC3)c2n1 [Compound 16]	8 (≈ 19.7 µM)	–	1.21 ± 0.05	0.27	128 (≈ 315 µM)	97.7 ± 1.08	315	128	9.84	4	8 (≈ 19.7 µM)	32 (≈ 78.7 µM)	–	> 100	> 50
COc1ccc2nccc(CCN3CCC(NCc4ccc(OC(F)F)c(OC)c4)CC3)c2n1 [Compound 19, N-(4-(Difluoromethoxy)-3-methoxybenzyl)-1-(2-(6-methoxy-1,5-naphthyridin-4-yl)ethyl)piperidin-4-amine]	2 (≈ 4.23 µM)	–	0.1 ± 0.01	0.28	4 (≈ 8.46 µM)	96.4 ± 2.3	67.7	32	2.12	1	2 (≈ 4.23 µM)	2 (≈ 4.23 µM)	0.18	29 ± 1.89	19.8 ± 2.58
COc1ccc2nccc(CCN3CCC(NCc4ccc(OC(F)F)c(O)c4)CC3)c2n1 [Compound 20, 2-(Difluoromethoxy)-5-((1-(2-(6-methoxy-1,5-naphthyridin-4-yl)ethyl)piperidin-4-ylamino)methyl)phenol]	1 (≈ 2.18 µM)	–	0.06	0.30	4 (≈ 8.72 µM)	94.8	17.4	8	1.09	0.5	2 (≈ 4.36 µM)	2 (≈ 4.36 µM)	–	> 100	29.8 ± 1.13
COc1ccc2nccc(CCN3CCC(NCc4ccc(C(F)(F)F)nc4)CC3)c2n1 [Compound 21, 1-(2-(6-Methoxy-1,5-naphthyridin-4-yl)ethyl)-N-((6-(trifluoromethyl)pyridin-3-yl)methyl)piperidin-4-amine]	0.5 (≈ 1.12 µM)	> 50	> 100	–	8 (≈ 18 µM)	95.5 ± 2.39	71.8	32	0.56	0.25	1 (≈ 2.24 µM)	2 (≈ 4.49 µM)	0.20	18.5 ± 1.32	–
COc1ccc(CNC2CCN(CCc3ccnc4ccc(OC)nc34)CC2)cn1 [Compound 22, 1-(2-(6-Methoxy-1,5-naphthyridin-4-yl)ethyl)-N-((6-methoxypyridin-3-yl)methyl)piperidin-4-amine]	2 (≈ 4.91 µM)	> 50	> 100	–	8 (≈ 19.6 µM)	97 ± 6.94	38.1	16	1.19	0.5	2 (≈ 4.91 µM)	2 (≈ 4.91 µM)	–	> 100	–
